Source: US4507314A, “Drug for treating affections provoked by a too high histamine level, of the gastroduodenal mucosa and allergic affections” (Midit, Societe Fiduciaire, priority 1983, dated 1985)
pIC50: −log10 of the molar value. Where two headings read alike, the source gives them in different places.

Columns and labels:
[1] = test system: histamine level of the plasma
From the text: (§1) Photographs of the ulcer and biopsies of the stomach mucosa were taken before and after each week of treatment.

[2] = test system: histamine levels in the fundus, corpus and antrum mucosa; details: 4 weeks
From the text: as §1

[3] = test system: gastric ulcers induced in rats by immobilisation; details: intraperitoneal; expressed in terms of dry (+)-catechin; immobilised 12 hours
Method: (a) on ulcers induced by stress caused by immobilization: After one week adaptation to the environment, female rats, (30 animals per group, 5 per cage), were immobilised during 12 hours by wrapping them, under narcosis with ether, in a plaster bandage.
After sacrifice of the animals, the dissected stomach was visually inspected and the lesions of the mucosa were scored according to their number and their intensity.
The products to be tested were administered, immediately before the test, by intraperitoneal injection of 2 ml of a freshly prepared saline solution. The doses tested varied from 0.1 to 50 mg/kg. The controls received 2 ml of saline.

[4] = test system: stress induced gastric ulcers; details: 30 mg/kg oral, 3 times a day during 3 days; immobilisation 12 hours; control group 38%
Method: The tested product was given 3 times a day during the 3 days preceding the experiment. The last administration was given 1 hour before immobilisation of the rats during 12 hours.

[5] = test system: necrosis of the gastric mucosa induced by acetic acid; details: 150 mg/kg orally, twice a day during 5 days
Method: In rats fasted for 24 hours, necrosis of the gastric mucosa was induced by intra-gastric administration of acetic acid (1 ml at 20%) one hour before treatment.
Accordingly the rats were sacrified, the stomach mucosa was photographed and the lesions were scored.

[6] = test system: human duodenal ulcer; details: after 1 month of treatment, 1500 mg daily
From the text: as §1

[7] = test system: intragastric pH; details: in vivo
From the text: as §1

[8] = test system: leucocytes; details: preincubation 10 minutes at 37° C., pollen or house dust 30 minutes
Method: Then the histamin level was measured in the leucocyte suspension and the supernatant liquid and compared to the values obtained from the controls.

[9] = test system: histamine level in lung tissue; details: 30 mg/kg per os, 3 times a day during 3 days; five hours after the last treatment
Method: The drug was administered per os as a suspension in carboxymethyl cellulose (1% in water).

[10] = test system: rat peritoneal mastocytes; details: 10^-50 M (so in the source); 48/80 stimulated; 37° C., 10 minutes
[11] = test system: rat peritoneal mastocytes; details: 30 mg/kg per os, 3 times a day during 3 days; 0.5 μg/ml compound 48/80, 10 minutes at 37° C.
[12] = test system: histamine content in rat stomach mucosa; details: 30 mg/kg intraperitoneal
[13] = test system: histamine content in the lungs; details: 30 mg/kg intraperitoneal
[14] = test system: histamine level of the mucosa of the fundus, of the corpus and of the antrum; details: 3 days, healthy persons
[15] = molecular target: T1, histidine decarboxylase (Oryctolagus cuniculus, UniProt G1TCH4); assay: inhibition of histidine decarboxylase extracted from rabbit stomach, in vitro; details: read-out: IC50, inhibition of histidine decarboxylase, enzyme extracted from rabbit stomach
T1 sequence (G1TCH4 1-661): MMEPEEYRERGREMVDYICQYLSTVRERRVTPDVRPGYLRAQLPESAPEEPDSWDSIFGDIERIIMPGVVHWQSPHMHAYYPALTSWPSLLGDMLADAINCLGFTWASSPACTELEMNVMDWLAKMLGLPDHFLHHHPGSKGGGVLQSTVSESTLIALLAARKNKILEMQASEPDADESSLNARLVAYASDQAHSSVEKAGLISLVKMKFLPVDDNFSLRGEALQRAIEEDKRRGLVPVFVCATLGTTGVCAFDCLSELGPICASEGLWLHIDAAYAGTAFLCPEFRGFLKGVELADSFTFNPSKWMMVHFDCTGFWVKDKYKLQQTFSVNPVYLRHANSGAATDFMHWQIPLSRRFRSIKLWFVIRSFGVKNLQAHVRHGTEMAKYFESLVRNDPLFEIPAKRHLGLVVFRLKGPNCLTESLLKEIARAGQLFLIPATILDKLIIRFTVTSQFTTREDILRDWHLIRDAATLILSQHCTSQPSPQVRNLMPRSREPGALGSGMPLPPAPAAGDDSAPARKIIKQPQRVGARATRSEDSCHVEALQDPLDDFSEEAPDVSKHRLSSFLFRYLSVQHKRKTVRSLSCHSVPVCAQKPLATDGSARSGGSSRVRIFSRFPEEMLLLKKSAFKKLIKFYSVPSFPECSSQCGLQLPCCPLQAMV

[16] = 1500 mg daily, duodenal ulcer patients

## CN/C(=N/CCSCc1nc[nH]c1C)NC#N [cimetidine, reference compound]
[1]; 800 mg cimetidine daily, 4 weeks
  effect on the histamine levels in the plasma: no notable effect or induced an increase
[1]; in some cases, 800 mg cimetidine daily, 4 weeks
  increase of the histamine levels in the plasma: more than 10%
[2]; 800 mg cimetidine daily
  effect on the histamine levels in the stomach mucosa: no notable effect or induced an increase
[2]; in some cases, 800 mg cimetidine daily
  increase of the histamine levels in the stomach mucosa: more than 10%

## (+)-catechin ascorbolysinate
[3]
  ED50 in the gastric ulcers induced in rats by immobilisation: 1.5 mg/kg

## (+)-catechin hydrochlorolysinate
[3]
  ED50 in the gastric ulcers induced in rats by immobilisation: 5 mg/kg
[4]
  proportion of rats with severe lesions: 15%
[5]
  reduction of the number of animals with severe lesions: 50%
[1]; 1500 mg daily, decreased from 0.7 (±0.3) ng/ml, observed after one week, constant during the following 3 weeks
  mean histamine level of the plasma after treatment: 0.3 (±0.1) ng/ml
[2]; [16]
  decrease of the histamine levels in the fundus, corpus and antrum mucosa: ~20%
  decrease of the number of mastocytes in the fundus, corpus and antrum mucosa: ~20%
[6]
  ulcer diameter of the other (not fully recovered) patients: decreased significantly
[6]; out of 11
  patients fully recovered: 7 patients
[7]
  effect on the intragastric pH: no effect
[8]; 10^-5 M
  release inhibition, leucocytes: 45%
[8]; 10^-6 M
  release inhibition, leucocytes: 45%
[9]
  decrease of the histamine level in the homogenized lung tissue compared to the control group: 38%
[10]
  inhibition of release of histamine from rat peritoneal mastocytes: 27%
[11]
  decrease of histamine release of the mastocytes compared to the controls: 22%
[12]
  decrease of the histamine content in rat stomach mucosa: 33%
[13]
  decrease of the histamine content in the lungs: 38%
[14]; 500, 1000 or 1500 mg per day per os, same way as the histamine level
  number of mastocytes: decreased in the same way
[14]; highest dose (1500 mg per day), per os, dose dependent
  decrease of the histamine level of the mucosa of the fundus, of the corpus and of the antrum: 30%
[15]
  pIC50: 4.00
